Laboratory results from paper PMC11212559 (Emerging Microbes & Infections, 2024).

Biological target: E1CTD-E12 complex (Monkeypox virus Zaire-96-I-16, UniProt Q8V4Y7)
Test: biochemical

C[S+](CC[C@H](N)C(=O)O)C[C@H]1O[C@@H](n2cnc3c(N)ncnc32)[C@H](O)[C@@H]1O (stereo partly shown) [SAM] was tested, and the Kd was 3.87 µM.
